Source: patent publication US20050197350A1, “Novel quinoline, tetrahydroquinazoline, and pyrimidine derivatives and methods of treatment related to the use thereof” (TAISHO PHARMACEUTICAL CO., LTD., priority 2003, published 2005)

Tested on: MCH receptors
Test: MCH receptor activity class (method not given)
Details: MCH receptor; class by percent of control at 10^-7 M or IC50

Compound | class
CCCCc1ccc(NC(=O)N[C@H]2CC[C@@H](Nc3nc4c(c(N(C)C)n3)CCCC4)CC2)cc1 [compound 1897] | 3 (Class 3 The value of percent of control at 10^−7 M was more than 60% or the value of IC50 was more than 200 nM.)
CN(C)c1nc(N[C@H]2CC[C@@H](NC(=O)Nc3ccc(-c4ccccc4)cc3)CC2)nc2c1CCCC2 [compound 1898] | 3 (Class 3 The value of percent of control at 10^−7 M was more than 60% or the value of IC50 was more than 200 nM.)
COc1ccc(Cl)cc1NC(=O)N[C@H]1CC[C@@H](Nc2nc3c(c(N(C)C)n2)CCCC3)CC1 [compound 1899] | 3 (Class 3 The value of percent of control at 10^−7 M was more than 60% or the value of IC50 was more than 200 nM.)
Cc1ccc(Cl)cc1NC(=O)N[C@H]1CC[C@@H](Nc2nc3c(c(N(C)C)n2)CCCC3)CC1 [compound 1900] | 3 (Class 3 The value of percent of control at 10^−7 M was more than 60% or the value of IC50 was more than 200 nM.)
CN(C)c1nc(N[C@H]2CC[C@@H](NC(=O)Nc3cc(Cl)ccc3[N+](=O)[O-])CC2)nc2c1CCCC2 [compound 1901] | 3 (Class 3 The value of percent of control at 10^−7 M was more than 60% or the value of IC50 was more than 200 nM.)
Cc1ccc(F)cc1NC(=O)N[C@H]1CC[C@@H](Nc2nc3c(c(N(C)C)n2)CCCC3)CC1 [compound 1902] | 3 (Class 3 The value of percent of control at 10^−7 M was more than 60% or the value of IC50 was more than 200 nM.)
CN(C)c1nc(N[C@H]2CC[C@@H](NC(=O)Nc3ccc4c(c3)CCC4)CC2)nc2c1CCCC2 [compound 1903] | 3 (Class 3 The value of percent of control at 10^−7 M was more than 60% or the value of IC50 was more than 200 nM.)
CN(C)c1nc(N[C@H]2CC[C@@H](NC(=O)Nc3ccc4c(c3)Cc3ccccc3-4)CC2)nc2c1CCCC2 [compound 1904] | 3 (Class 3 The value of percent of control at 10^−7 M was more than 60% or the value of IC50 was more than 200 nM.)
CN(C)c1nc(N[C@H]2CC[C@@H](NC(=O)NC3c4ccccc4-c4ccccc43)CC2)nc2c1CCCC2 [compound 1905] | 3 (Class 3 The value of percent of control at 10^−7 M was more than 60% or the value of IC50 was more than 200 nM.)
CN(C)c1nc(N[C@H]2CC[C@@H](NC(=O)NCCc3ccccc3)CC2)nc2c1CCCC2 [compound 1906] | 3 (Class 3 The value of percent of control at 10^−7 M was more than 60% or the value of IC50 was more than 200 nM.)
CN(C)c1nc(N[C@H]2CC[C@@H](NC(=O)NC3CCCC3)CC2)nc2c1CCCC2 [compound 1907] | 3 (Class 3 The value of percent of control at 10^−7 M was more than 60% or the value of IC50 was more than 200 nM.)
COC(=O)c1ccc(NC(=O)N[C@H]2CC[C@@H](Nc3nc4c(c(N(C)C)n3)CCCC4)CC2)cc1 [compound 1908] | 3 (Class 3 The value of percent of control at 10^−7 M was more than 60% or the value of IC50 was more than 200 nM.)
CN(C)c1nc(N[C@H]2CC[C@@H](NC(=O)Nc3ccccc3OC(F)(F)F)CC2)nc2c1CCCC2 [compound 1909, N-(cis-4-{[4-(dimethylamino)-5,6,7,8-tetrahydroquinazolin-2-yl]amino}cyclohexyl)-N′-[2-(trifluoromethoxy)phenyl]urea] | 2 (Class 2: The value of percent of control at 10^−7 M was from 40% to 60% or the value of IC′50 was from 50 nM to 200 nM.)
CCCCOC(=O)c1ccccc1NC(=O)N[C@H]1CC[C@@H](Nc2nc3c(c(N(C)C)n2)CCCC3)CC1 [compound 1910] | 3 (Class 3 The value of percent of control at 10^−7 M was more than 60% or the value of IC50 was more than 200 nM.)
COC(=O)c1cc(NC(=O)N[C@H]2CC[C@@H](Nc3nc4c(c(N(C)C)n3)CCCC4)CC2)cc(C(=O)OC)c1 [compound 1911] | 3 (Class 3 The value of percent of control at 10^−7 M was more than 60% or the value of IC50 was more than 200 nM.)
CN(C)c1nc(N[C@H]2CC[C@@H](NC(=O)Nc3ccc(OC(F)(F)F)cc3)CC2)nc2c1CCCC2 [compound 1912] | 3 (Class 3 The value of percent of control at 10^−7 M was more than 60% or the value of IC50 was more than 200 nM.)
CN(C)c1nc(N[C@H]2CC[C@@H](NC(=O)Nc3ccc4c(c3)C(F)(F)OC(F)(F)O4)CC2)nc2c1CCCC2 [compound 1913] | 3 (Class 3 The value of percent of control at 10^−7 M was more than 60% or the value of IC50 was more than 200 nM.)
CN(C)c1nc(N[C@H]2CC[C@@H](NC(=O)NCCc3cccs3)CC2)nc2c1CCCC2 [compound 1914] | 3 (Class 3 The value of percent of control at 10^−7 M was more than 60% or the value of IC50 was more than 200 nM.)
CN(C)c1nc(N[C@H]2CC[C@@H](NC(=O)Nc3ccccc3C#N)CC2)nc2c1CCCC2 [compound 1915] | 3 (Class 3 The value of percent of control at 10^−7 M was more than 60% or the value of IC50 was more than 200 nM.)

Same assay, conditions: class by percent of control at 10^-7 M or IC50

Compound | class
CCCCOC(=O)c1ccc(NC(=O)N[C@H]2CC[C@@H](Nc3nc4c(c(N(C)C)n3)CCCC4)CC2)cc1 [compound 1877] | 3 (Class 3 The value of percent of control at 10^−7 M was more than 60% or the value of IC50 was more than 200 nM.)
CN(C)c1nc(N[C@H]2CC[C@@H](NC(=O)Nc3ccc(C(F)(F)F)cc3)CC2)nc2c1CCCC2 [compound 1878] | 3 (Class 3 The value of percent of control at 10^−7 M was more than 60% or the value of IC50 was more than 200 nM.)
CN(C)c1nc(N[C@H]2CC[C@@H](NC(=O)Nc3ccc(SC(F)(F)F)cc3)CC2)nc2c1CCCC2 [compound 1879] | 3 (Class 3 The value of percent of control at 10^−7 M was more than 60% or the value of IC50 was more than 200 nM.)
Cc1cc(NC(=O)N[C@H]2CC[C@@H](Nc3nc4c(c(N(C)C)n3)CCCC4)CC2)c([N+](=O)[O-])cc1C [compound 1880] | 3 (Class 3 The value of percent of control at 10^−7 M was more than 60% or the value of IC50 was more than 200 nM.)
CN(C)c1nc(N[C@H]2CC[C@@H](NC(=O)Nc3ccc(OCc4ccccc4)cc3)CC2)nc2c1CCCC2 [compound 1881] | 3 (Class 3 The value of percent of control at 10^−7 M was more than 60% or the value of IC50 was more than 200 nM.)
CN(C)c1nc(N[C@H]2CC[C@@H](NC(=O)Nc3ccc(Cc4ccccc4)cc3)CC2)nc2c1CCCC2 [compound 1882] | 3 (Class 3 The value of percent of control at 10^−7 M was more than 60% or the value of IC50 was more than 200 nM.)
CN(C)c1nc(N[C@H]2CC[C@@H](NC(=O)Nc3ccc(Br)cc3Cl)CC2)nc2c1CCCC2 [compound 1883, N-(4-bromo-2-chlorophenyl)-N′-(cis-4-{[4-(dimethylamino)-5,6,7,8-tetrahydroquinazolin-2-yl]amino}cyclohexyl)urea] | 2 (Class 2: The value of percent of control at 10^−7 M was from 40% to 60% or the value of IC′50 was from 50 nM to 200 nM.)
CN(C)c1nc(N[C@H]2CC[C@@H](NC(=O)Nc3ccc(Br)cc3F)CC2)nc2c1CCCC2 [compound 1884] | 3 (Class 3 The value of percent of control at 10^−7 M was more than 60% or the value of IC50 was more than 200 nM.)
Cc1cc(NC(=O)N[C@H]2CC[C@@H](Nc3nc4c(c(N(C)C)n3)CCCC4)CC2)ccc1Br [compound 1885] | 3 (Class 3 The value of percent of control at 10^−7 M was more than 60% or the value of IC50 was more than 200 nM.)
CN(C)c1nc(N[C@H]2CC[C@@H](NC(=O)Nc3ccc(Cl)cc3[N+](=O)[O-])CC2)nc2c1CCCC2 [compound 1886] | 3 (Class 3 The value of percent of control at 10^−7 M was more than 60% or the value of IC50 was more than 200 nM.)
CN(C)c1nc(N[C@H]2CC[C@@H](NC(=O)Nc3ccc(Cl)c(C(F)(F)F)c3)CC2)nc2c1CCCC2 [compound 1887, N-4[4-chloro-3-(trifluoromethyl)phenyl]-N′-(cis-4-{[4-(dimethylamino)-5,6,7,8-tetrahydroquinazolin-2-yl]amino}cyclohexyl)urea] | 3 (Class 3 The value of percent of control at 10^−7 M was more than 60% or the value of IC50 was more than 200 nM.)
CCOc1ccc(NC(=O)N[C@H]2CC[C@@H](Nc3nc4c(c(N(C)C)n3)CCCC4)CC2)cc1 [compound 1888] | 3 (Class 3 The value of percent of control at 10^−7 M was more than 60% or the value of IC50 was more than 200 nM.)
CN(C)c1nc(N[C@H]2CC[C@@H](NC(=O)Nc3ccc(F)cc3[N+](=O)[O-])CC2)nc2c1CCCC2 [compound 1889] | 3 (Class 3 The value of percent of control at 10^−7 M was more than 60% or the value of IC50 was more than 200 nM.)
CN(C)c1nc(N[C@H]2CC[C@@H](NC(=O)Nc3ccc(F)c(C(F)(F)F)c3)CC2)nc2c1CCCC2 [compound 1890] | 3 (Class 3 The value of percent of control at 10^−7 M was more than 60% or the value of IC50 was more than 200 nM.)
CCCCCCCOc1ccc(NC(=O)N[C@H]2CC[C@@H](Nc3nc4c(c(N(C)C)n3)CCCC4)CC2)cc1 [compound 1891] | 3 (Class 3 The value of percent of control at 10^−7 M was more than 60% or the value of IC50 was more than 200 nM.)
CN(C)c1nc(N[C@H]2CC[C@@H](NC(=O)Nc3ccc(I)cc3)CC2)nc2c1CCCC2 [compound 1892] | 3 (Class 3 The value of percent of control at 10^−7 M was more than 60% or the value of IC50 was more than 200 nM.)
COc1ccc(NC(=O)N[C@H]2CC[C@@H](Nc3nc4c(c(N(C)C)n3)CCCC4)CC2)c([N+](=O)[O-])c1 [compound 1893] | 3 (Class 3 The value of percent of control at 10^−7 M was more than 60% or the value of IC50 was more than 200 nM.)
Cc1ccc(NC(=O)N[C@H]2CC[C@@H](Nc3nc4c(c(N(C)C)n3)CCCC4)CC2)cc1[N+](=O)[O-] [compound 1894] | 3 (Class 3 The value of percent of control at 10^−7 M was more than 60% or the value of IC50 was more than 200 nM.)
Cc1ccc(CNC(=O)N[C@H]2CC[C@@H](Nc3nc4c(c(N(C)C)n3)CCCC4)CC2)cc1 [compound 1895] | 3 (Class 3 The value of percent of control at 10^−7 M was more than 60% or the value of IC50 was more than 200 nM.)
CCCCOc1ccc(NC(=O)N[C@H]2CC[C@@H](Nc3nc4c(c(N(C)C)n3)CCCC4)CC2)cc1 [compound 1896] | 3 (Class 3 The value of percent of control at 10^−7 M was more than 60% or the value of IC50 was more than 200 nM.)
